Source: US20250092044A1, “Kinase Inhibitors” (Incyte Corporation, priority 2023, published 2025)

Columns and labels:
FLT3 [1] = experiment: FLT3 Enzymatic Assay; type: biochemical
Description: (§1) The kinase assays were carried out at room temperature in assay buffer (HEPES 50 mM, pH 7.0, NaN3 0.02%, BSA 0.01%, Orthovanadate 0.1 mM, DTT 1 mM, MgCl2 10 mM) in a final volume of 10 μL. Testing compounds were prepared by serial dilution in DMSO and transferred to the plate wells by ECHO liquid handler (Labcyte) with 0.5% DMSO in the final assay. […]. Reactions were initiated by the addition of 5 μL ATP in assay buffer. The final 10 μL kinase reaction consists of 0.011 nM FLT3, 1 mM ATP, 500 nM TK Substrate-biotin and SEB reagent 62.5 nM in assay buffer. […] The plates were then sealed and centrifuged at 1800 rpm for 2 minutes. After 60 minutes incubation at room temperature, the product activity was determined by measuring the fluorescence at 620 nm and 665 nm on Pherastar microplate reader (BMG Labtech). A ratio is calculated (665/620 nm) for each well. Wells with DMSO only were served as the positive controls and wells containing no ATP were used as negative controls. IC50 determination was performed by fitting the curve of percent control activity versus the log of the compound concentration using the GraphPad Prism 7.0 software.

FLT3 [2] = target: FLT3 (Homo sapiens (Human), UniProt P36888); experiment: FLT3 Enzymatic Assay; type: biochemical; details: 1 mM ATP
Chain of FLT3 (Homo sapiens (Human), UniProt P36888) (P36888 27-993, species assumed): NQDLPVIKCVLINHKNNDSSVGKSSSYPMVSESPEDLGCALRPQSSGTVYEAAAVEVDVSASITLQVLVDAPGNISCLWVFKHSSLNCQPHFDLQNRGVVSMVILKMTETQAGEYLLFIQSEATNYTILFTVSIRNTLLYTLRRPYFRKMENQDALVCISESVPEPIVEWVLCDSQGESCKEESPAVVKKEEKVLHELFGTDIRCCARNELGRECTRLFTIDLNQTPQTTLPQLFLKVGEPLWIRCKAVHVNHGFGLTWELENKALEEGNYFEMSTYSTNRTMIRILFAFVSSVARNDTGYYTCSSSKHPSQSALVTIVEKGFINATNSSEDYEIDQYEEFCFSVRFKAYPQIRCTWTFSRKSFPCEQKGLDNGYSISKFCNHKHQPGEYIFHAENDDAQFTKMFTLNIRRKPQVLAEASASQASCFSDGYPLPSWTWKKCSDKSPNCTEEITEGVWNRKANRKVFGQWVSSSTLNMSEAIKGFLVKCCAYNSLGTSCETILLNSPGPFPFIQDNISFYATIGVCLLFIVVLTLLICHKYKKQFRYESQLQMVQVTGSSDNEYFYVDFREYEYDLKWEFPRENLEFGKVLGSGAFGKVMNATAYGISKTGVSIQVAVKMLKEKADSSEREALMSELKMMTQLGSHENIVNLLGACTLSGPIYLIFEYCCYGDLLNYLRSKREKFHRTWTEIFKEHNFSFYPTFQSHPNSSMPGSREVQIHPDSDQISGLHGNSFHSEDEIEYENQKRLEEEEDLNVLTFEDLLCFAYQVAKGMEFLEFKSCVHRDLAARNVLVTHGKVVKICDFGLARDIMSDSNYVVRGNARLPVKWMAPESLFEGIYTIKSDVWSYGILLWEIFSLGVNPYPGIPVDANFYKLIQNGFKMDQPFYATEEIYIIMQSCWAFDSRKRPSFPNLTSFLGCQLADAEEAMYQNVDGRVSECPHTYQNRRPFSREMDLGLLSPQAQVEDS
Description: as §1

[3] = system: STAT5 (Tyr694) phosphorylation in SET-2 cells; experiment: STAT5 (Tyr694) Phosphorylation Cell Based Assay; details: Homo sapiens, 2 hours, read-out: SET2 IC50
Description: SET-2 cells was purchased from DSMZ (Germany). RPMI1640 medium, Fetal Bovine Serum and 384-white sold flat-bottom small volume plate were purchased from Thermo Fisher Scientific (Waltham, MA). Phospho-STAT5 (Tyr694) HTRF kit was purchased from Perkin Elmer (Waltham, MA).
SET-2 cells were cultured in RPMI media with 20% FBS at 37° C. in humidified incubator supplied with 5% CO2. On the day of assay, the cells were centrifuged to remove the culture media and resuspended with prewarmed RPMI with 10% FBS. Testing compounds were prepared by serial dilution in DMSO and 50 nL/well test compounds were transferred to the 384 white low volume cell culture plate (Greiner Bio-one) by ECHO liquid handler (Labcyte). The cells were then dispensed with Multidrop (Thermo Fisher, Waltham, MA) at 10 μL/well (7×10^6 cells/mL) with 0.5% DMSO in the final assay. After the treated cells were incubated for 2 hours at 37° C./5% CO2 incubator, 4 μL/well supplemented lysis buffer (100× blocking buffer diluted 25 fold in 4× lysis buffer, Perkin Elmer) were added and incubated at room temperature for 90 min on orbital shaker at 600 rpm. Phospho-STAT5 Cryptate antibody and Phospho-STAT5 d2 antibody (1:1 vol/vol) were premixed and diluted 20 fold with in the detection buffer (Perkin Elmer). 4 μL of the premixed antibody solution were added to each well followed with 24 hours incubation at room temperature on orbital shaker at 600 rpm. The product activity was determined by measuring the fluorescence at 620 nm and 665 nm on Pherastar microplate reader (BMG Labtech). A ratio is calculated (665/620) for each well. Wells with DMSO only served as the positive controls and wells containing high concentration of control compound were used as negative controls. IC50 determination was performed by fitting the curve of percent control activity versus the log of the compound concentration using the GraphPad Prism 7.0 software.

TRKA [4] = target: TRKA (Homo sapiens (Human), UniProt P04629); experiment: TRKA Enzymatic Assay; type: biochemical; details: 1 mM ATP
Chain of TRKA (Homo sapiens (Human), UniProt P04629) (P04629 33-796, species assumed): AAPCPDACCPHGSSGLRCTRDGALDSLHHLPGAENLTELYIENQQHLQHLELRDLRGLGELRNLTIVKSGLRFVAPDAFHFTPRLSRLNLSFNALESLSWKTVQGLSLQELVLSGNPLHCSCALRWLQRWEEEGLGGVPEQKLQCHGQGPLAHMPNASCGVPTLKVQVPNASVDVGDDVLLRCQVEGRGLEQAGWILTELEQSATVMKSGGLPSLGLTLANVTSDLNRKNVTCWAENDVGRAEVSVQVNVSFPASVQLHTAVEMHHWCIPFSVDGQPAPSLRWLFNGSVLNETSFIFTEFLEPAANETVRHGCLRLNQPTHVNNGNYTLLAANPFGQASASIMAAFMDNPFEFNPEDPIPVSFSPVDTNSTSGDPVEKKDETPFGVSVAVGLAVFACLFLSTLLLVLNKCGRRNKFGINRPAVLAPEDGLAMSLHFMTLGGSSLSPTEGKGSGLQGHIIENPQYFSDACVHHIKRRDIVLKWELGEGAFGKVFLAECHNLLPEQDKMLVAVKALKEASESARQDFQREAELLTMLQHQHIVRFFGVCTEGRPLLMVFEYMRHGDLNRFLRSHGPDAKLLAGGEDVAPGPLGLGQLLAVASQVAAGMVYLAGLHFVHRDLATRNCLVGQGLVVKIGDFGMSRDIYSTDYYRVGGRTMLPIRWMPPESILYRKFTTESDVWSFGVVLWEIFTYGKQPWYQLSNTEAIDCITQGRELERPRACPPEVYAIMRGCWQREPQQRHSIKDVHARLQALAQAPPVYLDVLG
Description: (§2) The kinase assays were carried out at 24° C. temperature in assay buffer (HEPES 50 mM, pH 7.0, NaN3 0.02%, BSA 0.01%, Orthovanadate 0.1 mM, DTT 1 mM, MgCl2 10 mM) in a final volume of 10 μL. Testing compounds were prepared by serial dilution in DMSO and transferred to the plate wells by ECHO liquid handler (Labcyte) with 0.5% DMSO in the final assay. […]. Reactions were initiated by the addition of 5 μL ATP in assay buffer. The final 10 μL kinase reaction consisted of 0.58 nM TRKA, 1 mM ATP, 500 nM TK Substrate-biotin and SEB reagent 62.5 nM in assay buffer. […] After 60 minutes incubation at room temperature, the product activity was determined by measuring the fluorescence at 620 nm and 665 nm on Pherastar microplate reader (BMG Labtech). A ratio was calculated (665/620 nm) for each well. Wells with DMSO only served as the positive controls and wells containing no ATP were used as negative controls. IC50 determination was performed by fitting the curve of percent control activity versus the log of the compound concentration using the Gene data.

TRKA [5] = experiment: TRKA Enzymatic Assay; type: biochemical
Description: as §2

[6] = target: pseudo-kinase domain (JH2) of human V617F mutant JAK2 (Homo sapiens (Human), UniProt O60674, F794H/V617F/W659A/W777A); experiment: JAK2 LanthaScreen JH2-V617F Binding Assay; details: read-out: JH2 V617F Bind IC50
Chain of pseudo-kinase domain (JH2) of human V617F mutant JAK2 (O60674 536-812 V617F/W659A/W777A/F794H): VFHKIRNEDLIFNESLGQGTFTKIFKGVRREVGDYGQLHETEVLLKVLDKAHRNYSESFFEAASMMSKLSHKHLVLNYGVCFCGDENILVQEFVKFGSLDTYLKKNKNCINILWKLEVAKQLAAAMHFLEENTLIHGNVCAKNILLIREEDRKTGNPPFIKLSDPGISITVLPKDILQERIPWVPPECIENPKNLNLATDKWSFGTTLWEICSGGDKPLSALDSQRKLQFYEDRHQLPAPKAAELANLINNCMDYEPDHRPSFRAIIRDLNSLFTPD
Description: JAK2 JH2-V617F binding assay utilizes pseudo-kinase domain (JH2, amino-acids 536-812 with 3 surface mutations W659A, W777A, F794H) of human V617F mutant JAK2 expressed as C-terminal His-Avi-tagged, biotinylated protein in a baculovirus expression system (BPS Bioscience, Catalog #79498). The assay was conducted in black 384-well polystyrene plates in a final reaction volume of 20 μL. JAK2 JH2-V617F (0.26 nM) was incubated with compounds (100 nL serially diluted in DMSO) in the presence of 50 nM Fluorescent JAK2-JH2 Tracer (MedChem Express Catalog #HY-102055) and 0.25 nM Streptavidin-Tb cryptate (Cisbio Part #610SATLB) in assay buffer (50 mM Tris, pH=7.5, 10 mM MgCl2, 0.01% Brij-35, 0.1% BSA, 1 mM EGTA, 5% Glycerol and 5 mM DTT). Non-specific binding was accessed in the presence of 2 mM ATP. After incubation for 1 hour at 25° C., LanthaScreen signals were read on a PHERAstar FS plate reader (BMG LABTECH). Data was analyzed with IDBS XLfit and GraphPad Prism 5.0 software using a four parameter dose response curve to determine IC50 for each compound.

[7] = target: catalytic domain (JH1) of human JAK2 (Homo sapiens (Human), UniProt O60674); experiment: JAK2 LanthaScreen JH1 Binding Assay; details: read-out: JH1 Bind IC50
Chain of catalytic domain (JH1) of human JAK2 (O60674 826-1132): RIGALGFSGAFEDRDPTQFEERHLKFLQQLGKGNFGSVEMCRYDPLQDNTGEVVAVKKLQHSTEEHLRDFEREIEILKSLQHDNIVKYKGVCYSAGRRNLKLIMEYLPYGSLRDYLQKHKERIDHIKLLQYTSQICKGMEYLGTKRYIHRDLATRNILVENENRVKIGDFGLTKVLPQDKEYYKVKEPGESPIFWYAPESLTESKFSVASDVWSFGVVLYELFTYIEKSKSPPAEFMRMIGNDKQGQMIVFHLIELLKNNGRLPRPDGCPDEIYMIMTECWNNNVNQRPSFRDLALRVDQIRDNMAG
Description: JAK2 JH1 binding assay utilizes catalytic domain (JH1, amino acids 826-1132) of human JAK2 expressed as N-terminal FLAG-tagged, biotinylated protein in a baculovirus expression system (Carna Biosciences, Product #08-445-20N). The assay was conducted in black 384-well polystyrene plates in a final reaction volume of 20 μL. JAK2 JH1 (1.5 nM) was incubated with compounds (100 nL serially diluted in DMSO) in the presence of 50 nM fluorescent JAK2-JH1 tracer and 0.5 nM Streptavidin-Tb cryptate (Cisbio Part #610SATLB) in assay buffer (50 mM Tris, pH=7.5, 10 mM MgCl2, 0.01% Brij-35, 0.1% BSA, 1 mM EGTA, 5% Glycerol and 5 mM DTT). Non-specific binding was accessed in the presence of 2 mM ATP. After incubation for 2 hours at 25° C., LanthaScreen signals were read on a PHERAstar FS plate reader (BMG LABTECH). Data was analyzed with IDBS XLfit and GraphPad Prism 5.0 software using a four parameter dose response curve to determine IC50 for each compound.

Compound | Selectivity FLT3/JH2 V617F (FLT3 [1]) | IC50 (FLT3 [2]) [nM] | IC50 [3] [nM] | IC50 (TRKA [4]) [nM] | Selectivity TRKA/JH2 V617F (TRKA [5]) | IC50 [6] [nM] | IC50 [7] [nM]
CCNC(=O)c1ccc(-c2[nH]c3ncc4c(c3c2-c2ccc3c(cnn3C(C)C)c2)n([C@@H]2CC[C@@H](NC(=O)OC)C2)c(=O)n4C)cc1OC [Example 18, Methyl ((1R,3R)-3-(7-(4-(ethylcarbamoyl)-3-methoxyphenyl)-8-(1-isopropyl-1H-indazol-5-yl)-3-methyl-2-oxo-3,6-dihydroimidazo[4,5-d]pyrrolo[2,3-b]pyridin-1(2H)-yl)cyclopentyl)carbamate] | **** (selectivity of >1750-fold to ≤5000-fold) | 250 to 1250 | ≤ 300 | 1250 to 2500 | ***** (selectivity of >5000-fold to ≤12500-fold) | ≤ 10 | > 1000
COC(=O)N[C@@H]1CC[C@@H](n2c(=O)n(C)c3cnc4[nH]c(-c5ccc(C(=O)N6CC(OC)C6)c(F)c5)c(-c5ccc6c(cnn6C(C)C)c5)c4c32)C1 [Example 17, Methyl ((1R,3R)-3-(7-(3-fluoro-4-(3-methoxyazetidine-1-carbonyl)phenyl)-8-(1-isopropyl-1H-indazol-5-yl)-3-methyl-2-oxo-3,6-dihydroimidazo[4,5-d]pyrrolo[2,3-b]pyridin-1(2H)-yl)cyclopentyl)carbamate] |  |  | > 800 |  |  | ≤ 10 | > 1000
COC(=O)N[C@@H]1CC[C@@H](n2c(=O)n(C)c3cnc4[nH]c(-c5cc(F)c(C(=O)NC6CC6)c(F)c5)c(-c5cccc(F)c5)c4c32)C1 [Example 4, Methyl ((1R,3R)-3-(7-(4-(cyclopropylcarbamoyl)-3,5-difluorophenyl)-8-(3-fluorophenyl)-3-methyl-2-oxo-3,6-dihydroimidazo[4,5-d]pyrrolo[2,3-b]pyridin-1(2H)-yl)cyclopentyl)carbamate] |  |  | > 800 |  |  | ≤ 10 | > 1000
COC(=O)N[C@@H]1CC[C@@H](n2c(=O)n(C)c3cnc4[nH]c(-c5ccc(C(=O)NC(C)C)c(F)c5)c(-c5cccc(F)c5)c4c32)C1 [Example 2, Methyl ((1R,3R)-3-(7-(3-fluoro-4-(isopropylcarbamoyl)phenyl)-8-(3-fluorophenyl)-3-methyl-2-oxo-3,6-dihydroimidazo[4,5-d]pyrrolo[2,3-b]pyridin-1(2H)-yl)cyclopentyl)carbamate] |  |  | > 800 |  |  | ≤ 10 | > 1000
Cn1c(=O)n(C2CCCC2)c2c3c(-c4ccccc4)c(-c4ccc(CN5CCC(S(C)(=O)=O)CC5)cc4)[nH]c3ncc21 [Comparative Example H, reference compound] | * (selectivity of ≤500-fold) | 25 to 250 | 300 to 800 | 25 to 250 | * (selectivity of ≤500-fold) | ≤ 10 | 
CCn1c(=O)n(C2CCCC2)c2c3cc(-c4ccc(CN5CCC(S(C)(=O)=O)CC5)cc4)[nH]c3ncc21 [Comparative Example G, reference compound] |  |  |  |  |  | > 1000 | 
Cn1cc(-c2[nH]c3ncc4c(c3c2-c2ccc3c(cnn3C)c2)n([C@H]2CC[C@@H](CC#N)CC2)c(=O)n4C)cn1 [Comparative Example C, reference compound] | * (selectivity of ≤500-fold) | < 25 |  | < 25 | * (selectivity of ≤500-fold) | ≤ 10 | 
CNC(=O)c1c(F)cc(-c2[nH]c3ncc4c(c3c2-c2cccc(F)c2)n([C@@H]2CC[C@@H](NC(=O)OC)C2)c(=O)n4C)cc1F [Example 3, Methyl ((1R,3R)-3-(7-(3,5-difluoro-4-(methylcarbamoyl)phenyl)-8-(3-fluorophenyl)-3-methyl-2-oxo-3,6-dihydroimidazo[4,5-d]pyrrolo[2,3-b]pyridin-1(2H)-yl)cyclopentyl)carbamate] |  |  | > 800 |  |  | ≤ 10 | > 1000
CNC(=O)c1ccc(-c2[nH]c3ncc4c(c3c2-c2cccc(F)c2)n([C@@H]2CC[C@@H](NC(=O)OC)C2)c(=O)n4C)cc1F [Example 1, Methyl ((1R,3R)-3-(7-(3-fluoro-4-(methylcarbamoyl)phenyl)-8-(3-fluorophenyl)-3-methyl-2-oxo-3,6-dihydroimidazo[4,5-d]pyrrolo[2,3-b]pyridin-1(2H)-yl)cyclopentyl)carbamate] |  |  | > 800 |  |  | ≤ 10 | > 1000
Cn1ncc2cc(-c3c(-c4ccc(CN5CCC(S(C)(=O)=O)CC5)cc4)[nH]c4ncc5c(c34)n(C3CCCC3)c(=O)n5C)ccc21 [Comparative Example I, reference compound] | * (selectivity of ≤500-fold) | < 25 | 300 to 800 | < 25 | * (selectivity of ≤500-fold) | ≤ 10 | 
